Data published in the supplement of paper PMC10307832.

What follows are cell lines tested with CC1=C(N=C(N=C1N)[C@H](CC(=O)N)NC[C@@H](C(=O)N)N)C(=O)N[C@@H]([C@H](C2=CN=CN2)OC3C(C(C(C(O3)CO)O)O)OC4C(C(C(C(O4)CO)O)OC(=O)N)O)C(=O)N[C@H](C)[C@H]([C@H](C)C(=O)N[C@@H]([C@@H](C)O)C(=O)NCCC5=NC(=CS5)C6=NC(=CS6)C(=O)NCCC[S+](C)C)O [Bleomycin] + C[C@]1(O)C[C@@H](c2nc(-c3ccc4ccc(-c5ccccc5)nc4c3)c3c(N)nccn32)C1 [Linsitinib] (partner 1 µM) (assay: relative viability (nuclei count vs DMSO), 5 days (fraction); higher = more cells survive). Details: first compound 1 µM; main component drawn.
In short: (§1)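 Relative viability is defined as nuclei in treated wells over nuclei in vehicle wells. Duplicate plates were run and medians reported. Lung cancer cell lines in 1536-well plates were dosed by pin tool one day after seeding, with one drug or with a fixed anchor-drug dose plus five library-drug doses (not always all listed) in √10 steps, and nuclei were counted after 5 days.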
EPLC-272H showed a relative viability of 0.196. NCI-H23 was tested, and the relative viability was 0.137.

The cell lines below were run with COc1cc([C@@H]2c3cc4c(cc3[C@@H](O[C@@H]3O[C@@H]5CO[C@@H](C)O[C@H]5[C@H](O)[C@H]3O)[C@H]3COC(=O)[C@H]23)OCO4)cc(OC)c1O [Etoposide] + COc1cccc2cc(-c3nc([C@H]4CC[C@H](C(=O)O)CC4)n4ncnc(N)c34)[nH]c12 [OSI-027] (partner 0.5 µM) in the same assay as above. Details: first compound 0.01 µM.
In short: as §1
Cell Line LOU-NH91 has a relative viability of 0.723. NCI-H3122 gave a relative viability of 0.799. Cell Line HOP-62 has a relative viability of 0.802. HCC-44 was tested, and the relative viability was 0.625. In the case of LU99A, the relative viability is reported as 0.307. BEN was tested, and the relative viability was 0.266. For HARA, the relative viability was 0.517. HCC-78 showed a relative viability of 0.387. In the case of LCLC-97TM1, the relative viability is reported as 0.532. For NCI-H2009, the relative viability was 0.572. With A-427 the relative viability was 0.472. Work on NCI-H460 yielded a relative viability of 0.601. NCI-H727 gave a relative viability of 0.724. Work on NCI-H1734 yielded a relative viability of 0.636. NCI-H520 was tested, and the relative viability was 0.253. Work on NCI-H2405 yielded a relative viability of 0.637. SW 1573 showed a relative viability of 0.707. With 201T the relative viability was 0.6. With NCI-H1915 the relative viability was 0.598. With HCC-827 the relative viability was 0.742. Work on LXF-289 yielded a relative viability of 0.783. NCI-H2347 showed a relative viability of 0.365. NCI-H650 was tested, and the relative viability was 0.571. CAL-12T gave a relative viability of 0.527. NCI-H1651 was tested, and the relative viability was 0.591. Cell Line EPLC-272H has a relative viability of 0.287. For NCI-H23, the relative viability was 0.754.

Same assay, conditions: first compound 0.03162 µM
LOU-NH91 was tested, and the relative viability was 0.794. NCI-H3122 gave a relative viability of 0.985. HOP-62 was tested, and the relative viability was 0.882. HCC-44 gave a relative viability of 0.524. LU99A was tested, and the relative viability was 0.343. BEN gave a relative viability of 0.306. HARA showed a relative viability of 0.554. For HCC-78, the relative viability was 0.392. LCLC-97TM1 gave a relative viability of 0.517. NCI-H2009 was tested, and the relative viability was 0.659. With A-427 the relative viability was 0.486. Work on NCI-H460 yielded a relative viability of 0.731. NCI-H727 was tested, and the relative viability was 0.674. Cell Line NCI-H1734 has a relative viability of 0.617. NCI-H520 showed a relative viability of 0.209. In the case of NCI-H2405, the relative viability is reported as 0.671. In the case of SW 1573, the relative viability is reported as 0.593. With 201T the relative viability was 0.693. In the case of NCI-H1915, the relative viability is reported as 0.637. With HCC-827 the relative viability was 0.773. LXF-289 showed a relative viability of 0.784. In the case of NCI-H2347, the relative viability is reported as 0.338. Work on NCI-H650 yielded a relative viability of 0.506. Cell Line CAL-12T has a relative viability of 0.603. For NCI-H1651, the relative viability was 0.641. With EPLC-272H the relative viability was 0.293. For NCI-H23, the relative viability was 0.609.

Same assay, conditions: first compound 0.1 µM
Cell Line LOU-NH91 has a relative viability of 0.493. NCI-H3122 gave a relative viability of 0.404. With HOP-62 the relative viability was 0.521. HCC-44 gave a relative viability of 0.52. With LU99A the relative viability was 0.242. HARA showed a relative viability of 0.151. Cell Line HCC-78 has a relative viability of 0.345. In the case of LCLC-97TM1, the relative viability is reported as 0.403. For NCI-H2009, the relative viability was 0.454. Cell Line A-427 has a relative viability of 0.43. With NCI-H460 the relative viability was 0.415. NCI-H1734 was tested, and the relative viability was 0.406. For NCI-H520, the relative viability was 0.204. NCI-H2405 showed a relative viability of 0.49. SW 1573 gave a relative viability of 0.277. 201T gave a relative viability of 0.641. For NCI-H1915, the relative viability was 0.492. HCC-827 showed a relative viability of 0.569. LXF-289 showed a relative viability of 0.67. With NCI-H2347 the relative viability was 0.325. Work on NCI-H650 yielded a relative viability of 0.44. With CAL-12T the relative viability was 0.339. NCI-H1651 gave a relative viability of 0.438. Work on EPLC-272H yielded a relative viability of 0.209. Cell Line NCI-H23 has a relative viability of 0.406.

Same assay, conditions: first compound 0.3162 µM
LOU-NH91 gave a relative viability of 0.71. NCI-H3122 gave a relative viability of 0.722. Cell Line HOP-62 has a relative viability of 0.696. With HCC-44 the relative viability was 0.505. Cell Line LU99A has a relative viability of 0.308. BEN gave a relative viability of 0.297. HARA gave a relative viability of 0.422. With HCC-78 the relative viability was 0.376. Cell Line LCLC-97TM1 has a relative viability of 0.423. With NCI-H2009 the relative viability was 0.539. Cell Line A-427 has a relative viability of 0.396. NCI-H460 was tested, and the relative viability was 0.0887. NCI-H727 was tested, and the relative viability was 0.542. With NCI-H1734 the relative viability was 0.497. NCI-H520 showed a relative viability of 0.292. NCI-H2405 showed a relative viability of 0.612. SW 1573 showed a relative viability of 0.265. 201T was tested, and the relative viability was 0.566. For NCI-H1915, the relative viability was 0.572. HCC-827 was tested, and the relative viability was 0.668. Work on LXF-289 yielded a relative viability of 0.71. Cell Line NCI-H2347 has a relative viability of 0.358. For NCI-H650, the relative viability was 0.443. In the case of CAL-12T, the relative viability is reported as 0.555. NCI-H1651 was tested, and the relative viability was 0.44. EPLC-272H gave a relative viability of 0.326. For NCI-H23, the relative viability was 0.542.

Same assay, conditions: first compound 1 µM
LOU-NH91 was tested, and the relative viability was 0.612. NCI-H3122 was tested, and the relative viability was 0.349. For HOP-62, the relative viability was 0.523. HCC-44 was tested, and the relative viability was 0.294. LU99A showed a relative viability of 0.228. Cell Line BEN has a relative viability of 0.318. For HARA, the relative viability was 0.118. HCC-78 was tested, and the relative viability was 0.281. Cell Line LCLC-97TM1 has a relative viability of 0.116. NCI-H2009 gave a relative viability of 0.369. Work on A-427 yielded a relative viability of 0.212. Cell Line NCI-H460 has a relative viability of 0.0402. Cell Line NCI-H727 has a relative viability of 0.513. In the case of NCI-H1734, the relative viability is reported as 0.302. NCI-H520 showed a relative viability of 0.286. Cell Line NCI-H2405 has a relative viability of 0.462. For SW 1573, the relative viability was 0.116. With 201T the relative viability was 0.283. NCI-H1915 gave a relative viability of 0.504. For HCC-827, the relative viability was 0.174. Work on LXF-289 yielded a relative viability of 0.431. Cell Line NCI-H2347 has a relative viability of 0.32. With NCI-H650 the relative viability was 0.249. CAL-12T was tested, and the relative viability was 0.199. Work on NCI-H1651 yielded a relative viability of 0.155. In the case of EPLC-272H, the relative viability is reported as 0.243. NCI-H23 was tested, and the relative viability was 0.207.
